Source: publication PMC5012908 (Acta biomaterialia, 2016)

Columns and labels:
[1] = Circular dichroism of β-peptide solutions; assay type: physicochemical; details: 0.1 mM peptide, 20 °C, consistent with 14-helicity without aggregation
[2] = read-out: IC50 (antifungal); isotonic glucose phosphate buffer; cited from earlier work

| Substance | CD minimum in methanol [1] [nm] | IC50 [2] [nM] |
| --- | --- | --- |
| Coumarin-linker-(ACHC-β^3hVal-β^3hLys)3 [β-peptide 1] | 214 | – |
| magainin-2 | – | 300 |
